Test results as given in patent US9725415B2, “Process for the preparation of 5-fluoro-1H-pyrazoles” (BAYER CROPSCIENCE AKTIENGESELLSCHAFT, priority 2013, dated 2017).

Assay: log P determination by HPLC on a phase inversion column (C18), EEC Directive 79/831 Annex V.A8
Type: physicochemical
Conditions: HPLC-MS method a): C18 column, gradient 10% to 95% acetonitrile (0.1% formic acid) / water (0.09% formic acid), oven 55° C.

Compared with `Cn1nc(C(F)(F)C(F)(F)F)c(C(F)(F)F)c1-n1cc(Br)cn1` [Intermediate (12), 4-bromo-2′-methyl-5′-(pentafluoroethyl)-4′-(trifluoromethyl)-2′H-1,3′-bipyrazole], `Cn1nc(C(F)(F)C(F)(F)F)c(C(F)(F)F)c1-n1cc(-c2ccc(Cl)c(C(=O)NC3(C#N)CC3)c2)cn1` [Compound (IIIa), 2-Chloro-N-1-cyano-cyclopropyl-5-[2′-methyl-5′-(pentafluoroethyl)-4′-(trifluoromethyl)-2′H-1,3′-bipyrazol-4-yl]benzamide] is lower in chromatographic logP: 4.14 for the first, 3.72 for the second.

With `Cn1nc(C(F)(F)C(F)(F)F)c(C(F)(F)F)c1C(=O)Nc1ccc(Cl)c(C(=O)NCc2ccccc2)c1` [Compound (IIa), N-[4-chloro-3-(benzylcarbamoyl)phenyl]-1-methyl-3-(pentafluoroethyl)-4-(trifluoromethyl)-1H-pyrazole-5-carboxamide] the chromatographic logP was 3.9.
